Our source for the inhibition values is ChEMBL document CHEMBL1221220, “Transport and signaling via the amino acid binding site of the yeast Gap1 amino acid transceptor” (Nat Chem Biol, 2009).

The structures appear in SMILES notation. Non-standard residues stand in square brackets, D forms with d. Residues, ends and D or L forms follow the SMILES beside them. *: point of attachment. Hyp = O=C(O)[C@@H]1C[C@@H](O)CN1; Boc = CC(C)(C)OC(=O)*; Aib = CC(C)(N)C(=O)O Where only a bound is given, the exact number is not on record here.
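Further: amino acid uptake through Gap1 in nitrogen-starved wild-type yeast cells, measured after 60 s and expressed relative to L-citrulline.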

The target of the assay is T1, General amino-acid permease GAP1 (Saccharomyces cerevisiae) (UniProt P19145).
T1 sequence (whole entry): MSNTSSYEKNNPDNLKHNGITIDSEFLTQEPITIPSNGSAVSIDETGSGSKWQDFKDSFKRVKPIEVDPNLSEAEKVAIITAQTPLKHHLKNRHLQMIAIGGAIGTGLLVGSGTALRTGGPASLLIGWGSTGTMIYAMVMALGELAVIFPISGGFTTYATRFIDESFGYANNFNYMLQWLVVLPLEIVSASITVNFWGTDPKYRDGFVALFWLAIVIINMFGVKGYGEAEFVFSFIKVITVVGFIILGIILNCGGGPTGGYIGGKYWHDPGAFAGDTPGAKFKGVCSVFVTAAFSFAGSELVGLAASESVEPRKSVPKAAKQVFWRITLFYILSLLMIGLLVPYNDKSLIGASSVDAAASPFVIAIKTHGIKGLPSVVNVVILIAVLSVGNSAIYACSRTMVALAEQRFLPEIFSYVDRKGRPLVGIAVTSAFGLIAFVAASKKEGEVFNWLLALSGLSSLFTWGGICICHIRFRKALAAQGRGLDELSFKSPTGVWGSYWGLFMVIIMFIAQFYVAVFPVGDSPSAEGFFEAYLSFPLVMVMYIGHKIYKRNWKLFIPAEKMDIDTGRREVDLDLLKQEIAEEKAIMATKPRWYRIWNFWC
As to conditions: sigma1278b, at 5 mM.
Description: Inhibition of nitrogen-starved wild type sigma1278b yeast Gap1-mediated amino acid uptake at 5 mM after 60 secs relative to L-citrulline
As for `CCOC(=O)C(N)Cc1c[nH]c2ccccc12` (racemic), the inhibition was < 15%. As for `CC(=O)N[C@H](C(=O)O)[C@@H](C)OC(C)(C)C`, the figure is < 15%; as for `CC[C@H](C)[C@H](NC(=O)CN)C(=O)O` (H-Gly-Ile-OH), < 15%. Take `COC(=O)[C@H](N)Cc1cnc[nH]1`: the inhibition is < 15%. Turning to `C[C@@H](O)[C@H](NC(=O)OC(C)(C)C)C(=O)O`, the inhibition is < 15%. Regarding `N[C@@H](CO)C(=O)N[C@@H](Cc1ccc(O)cc1)C(=O)O` (H-Ser-Tyr-OH), the inhibition is < 15%.

With `CC[C@H](C)[C@H](NC(=O)CN)C(=O)NCC(=O)O` (H-Gly-Ile-Gly-OH), the inhibition is < 15%.

With `NCC(=O)NCC(=O)N[C@@H](Cc1ccc(O)cc1)C(=O)O` (H-Gly-Gly-Tyr-OH), the inhibition was < 15%.

Consider `CC(C)C[C@H](NC(=O)CNC(=O)c1ccccc1)C(N)=O`, for which the inhibition was < 15%. As for `CC(C)C[C@@H](NC(=O)OC(C)(C)C)C(=O)O`, the figure is < 15%; as for `NCCCC[C@H](NC(=O)[C@@H](N)Cc1ccc(O)cc1)C(=O)O` (H-Tyr-Lys-OH), > 30%; as for `N[C@@H](Cc1ccc(O)cc1)C(=O)N[C@@H](Cc1ccc(O)cc1)C(=O)N[C@@H](Cc1ccc(O)cc1)C(=O)O` (H-Tyr-Tyr-Tyr-OH), < 15%. As for `N[C@@H](Cc1ccco1)C(=O)O`, the figure is > 30%; as for `C[C@H](NC(=O)[C@@H](N)CCC(N)=O)C(=O)O` (H-Gln-Ala-OH), < 15%.

As for `CC(C)(C)OC(=O)NCCC[C@H](N)C(=O)O`, the inhibition is < 15%. Turning to `CSCC[C@H](NC(=O)[C@@H](N)Cc1ccc(O)cc1)C(=O)NCC(=O)O` (H-Tyr-Met-Gly-OH), the inhibition is < 15%. Take `CC(C)(C)OC(=O)NCC(=O)N1CCC[C@H]1C(=O)N1CCC[C@H]1C(=O)O` (Boc-Gly-Pro-Pro-OH): the inhibition is < 15%. As for `N[C@@H]1CONC1=O`, the figure is < 15%; as for `O=C(O)C1CCCCN1` (stereo not given), < 15%.

Consider `NCC(=O)N[C@H](Cc1ccccc1)C(=O)O`, for which the inhibition is > 30%. For `NCC(N)=O`, the inhibition is < 15%. For `CC(C)C[C@H](N)C(=O)N[C@@H](Cc1cnc[nH]1)C(=O)O` (H-Leu-His-OH) the value was > 30%. For `CC(=O)N[C@@H](Cc1c[nH]c2ccccc12)C(=O)O` the value was < 15%.

Take `NC(=O)CC[C@H](NC(=O)[C@@H]1CCCN1)C(=O)O` (H-Pro-Gln-OH): the inhibition is < 15%. As for `CSCC[C@H](NC(=O)[C@H](C)N)C(=O)O` (H-Ala-Met-OH), the figure is > 30%; as for `NCC(=O)N[C@@H](Cc1cnc[nH]1)C(=O)NCC(=O)O` (H-Gly-His-Gly-OH), < 15%. Consider `CSCC[C@H](NC(=O)[C@@H](N)Cc1c[nH]c2ccccc12)C(=O)O` (H-Trp-Met-OH), for which the inhibition was < 15%. For `COC(=O)[C@@H]1C=CCN1` the value was < 15%. For the compound `CC(C)C[C@H](NC(=O)CCCN)C(=O)O`, the inhibition was < 15%. Take `CSCC[C@H](N)C(=O)N[C@@H](Cc1cnc[nH]1)C(=O)O` (H-Met-His-OH): the inhibition is < 15%. Regarding `C[C@@H](O)[C@H](N)C(=O)N[C@@H](CCCCN)C(=O)N[C@@H](Cc1ccc(O)cc1)C(=O)O` (H-Thr-Lys-Tyr-OH), the inhibition was < 15%. `O=C(O)C[C@H](NC(=O)OCc1ccccc1)C(=O)O`: the inhibition is < 15%. As for `CN[C@@H](Cc1cnc[nH]1)C(=O)O`, the figure is < 15%; as for `NC(=O)[C@H](CCC(=O)O)NC(=O)[C@@H]1CCCN1` (H-Pro-Glu-NH2), < 15%; as for `NCC(=O)NCC(=O)N[C@@H](CO)C(=O)O`, < 15%. As to `CC(C)C[C@H](NC(=O)[C@@H](N)CC(C)C)C(=O)N1CCC[C@H]1C(=O)O` (H-Leu-Leu-Pro-OH), the inhibition is < 15%. As for `CC(C)C[C@H](NC(=O)CN)C(=O)O`, the inhibition was < 15%. Consider `NCC(=O)NCCC(=O)NCCS(=O)(=O)O`, for which the inhibition is < 15%.

With `NCC(=O)NCC(=O)N1CCC[C@H]1C(=O)O` (H-Gly-Gly-Pro-OH), the inhibition was < 15%.

On to `COC(=O)[C@H](Cc1ccccc1)NC(=O)C[C@H](N)C(=O)O`, for which the inhibition was > 30%. As for `N[C@@H](Cc1ccc(O)cc1)C(=O)N[C@@H](Cc1ccc(O)cc1)C(=O)NCC(=O)O` (H-Tyr-Tyr-Gly-OH), the figure is < 15%; as for `NCC(=O)N1CCC[C@H]1C(=O)O` (H-Gly-Pro-OH), < 15%. For `NC(=O)[C@H](Cc1ccccc1)NC(=O)[C@@H](N)CC(=O)O` (H-Asp-Phe-NH2) the value was < 15%; for `NC(=O)C(N)Cc1c[nH]c2ccccc12` (racemic), < 15%; for `CC[C@H](C)[C@H](NC(=O)[C@@H](N)CC(C)C)C(=O)O` (H-Leu-Ile-OH), < 15%.

Regarding `CC(C)[C@@H](NC(=O)CN)C(=O)O`, the inhibition is < 15%. As for `CC(C)C[C@H](NC(=O)CN)C(N)=O`, the figure is < 15%.

`CC(C)[C@@H](NC(=O)OC(C)(C)C)C(=O)O`: the inhibition is < 15%. For `NCC(=O)NCC(=O)N[C@@H](CC(=O)O)C(=O)O` (H-Gly-Gly-Asp-OH) the value was < 15%; for `COC(=O)[C@@H](N)[C@@H](C)O`, < 15%; for `CC(C)C[C@H](N)C(=O)NCC(=O)NCC(=O)O` (H-Leu-Gly-Gly-OH), < 15%. For `NCC(=O)N[C@@H](CCC(=O)O)C(=O)O` (H-Gly-Glu-OH) the value was < 15%. As to `NCC(=O)N[C@@H](CO)C(=O)NCCS(=O)(=O)O`, the inhibition was < 15%. On to `CC(C)[C@H](N)C(=O)NCC(=O)O` (H-Val-Gly-OH), for which the inhibition is < 15%.

For the compound `CC[C@H](C)[C@H](N)C(=O)N[C@H](C(=O)O)[C@@H](C)CC` (H-Ile-Ile-OH), the inhibition was < 15%. For `O=C(O)[C@H]1CNCCN1` the value was < 15%; for `CC(C)C[C@H](NC(=O)[C@@H](NC(=O)[C@@H](N)[C@@H](C)O)C(C)C)C(=O)O` (H-Thr-Val-Leu-OH), < 15%; for `N[C@@H](Cc1c[nH]cn1)C(=O)NCC(=O)O` (H-His-Gly-OH), < 15%. Turning to `CCC[C@@H](NC(=O)[C@@H](N)CCC(=O)O)C(=O)O`, the inhibition is < 15%. As for `CC(C)C[C@H](NC(=O)CN)C(=O)N[C@@H](Cc1ccc(O)cc1)C(=O)O` (H-Gly-Leu-Tyr-OH), the figure is < 15%. Turning to `CC(C)C[C@H](NC(=O)[C@@H](N)C(C)C)C(=O)O` (H-Val-Leu-OH), the inhibition is < 15%. As for `C[C@H](NC(=O)[C@@H](N)[C@@H](C)O)C(=O)O` (H-Thr-Ala-OH), the inhibition was < 15%. For `COC(=O)[C@@H](N)Cc1ccc(O)cc1` the value was < 15%. In the case of `CC(C)(C)OC(=O)N1CCC[C@H]1C(=O)O`, the inhibition was < 15%. For `CSCC[C@H](N)C(=O)N[C@@H](CO)C(=O)O` (H-Met-Ser-OH) the value was < 15%; for `CCC[C@H](N)C(=O)OC`, < 15%. As for `CC(C)C[C@@H](N)C(=O)N[C@H](Cc1ccc(O)cc1)C(=O)O`, the inhibition was < 15%.

For the compound `C[C@H](NC(=O)OC(C)(C)C)C(=O)NC(C)(C)C(=O)O` (Boc-Ala-[Aib]-OH), the inhibition was < 15%. As for `CC[C@H](C)[C@H](NC(=O)CNC(=O)CN)C(=O)O` (H-Gly-Gly-Ile-OH), the figure is < 15%; as for `N[C@@H](Cc1cnc[nH]1)C(=O)N[C@@H](Cc1ccccc1)C(=O)O` (H-His-Phe-OH), < 15%.

Take `C[C@H](NC(=O)CN)C(=O)O` (H-Gly-Ala-OH): the inhibition stood at 15%. Take `C[C@H](N)C(=O)NCC(=O)O`: the inhibition was > 30%.

With `C[C@H](N)C(=O)N[C@@H](CC(N)=O)C(=O)O` (H-Ala-Asn-OH), the inhibition was > 30%. Take `NCC(=O)N[C@@H](Cc1c[nH]c2ccccc12)C(=O)O` (H-Gly-Trp-OH): the inhibition is > 30%.

Take `CC(C)(C)OC(=O)N[C@@H](CCCNC(=N)N)C(=O)O`: the inhibition is < 15%. For `N[C@@H](Cc1cnc[nH]1)C(=O)NCC(=O)NCC(=O)O` (H-His-Gly-Gly-OH), the inhibition is < 15%. Consider `CC(C)C[C@H](NC(=O)[C@@H](N)CC(C)C)C(=O)N[C@@H](Cc1cnc[nH]1)C(=O)O` (H-Leu-Leu-His-OH), for which the inhibition is < 15%. As for `CC(C)C[C@H](NC(=O)[C@H](CC(C)C)NC(=O)[C@@H](N)CC(=O)O)C(=O)O` (H-Asp-Leu-Leu-OH), the figure is 15%. As for `N[C@@H](Cc1c[nH]c2ccccc12)C(=O)N[C@@H](CCC(=O)O)C(=O)O` (H-Trp-Glu-OH), the figure is < 15%; as for `NCC[C@H]1CC[C@H](C(=O)O)CC1`, < 15%; as for `N[C@@H](CO)C(=O)N[C@@H](CO)C(=O)O` (H-Ser-Ser-OH), < 15%. Turning to `COC(=O)[C@H](C)N`, the inhibition is < 15%. On to `CC(C)C[C@H](NC(=O)CN)C(=O)O` (racemic), for which the inhibition turned out to be 15%. Regarding `O=C(O)[C@@H]1CCCN1C(=O)[C@@H]1C[C@@H](O)CN1C(=O)[C@@H]1CCCN1` (H-Pro-[Hyp]-Pro-OH), the inhibition is < 15%. For `CC[C@H](C)[C@H](NC(=O)[C@H](C)N)C(=O)O` (H-Ala-Ile-OH), the inhibition was determined as 15%.

What is called inhibition is the drop in the measured response relative to a control, in per cent. A low value points to a weak effect.
